Measured values published in US8461328B2, “Tricyclic heterocyclic compounds, compositions and methods of use thereof” (Genentech, Inc., priority 2010, dated 2013).

Columns and labels:
Assay type in all cases: biochemical
[1] = target: T1, JAK2 (Homo sapiens, UniProt O60674); test: JAK2 inhibition (Table 4); conditions: read-out: JAK2 Ki
T1 construct: made in house; host or cells: SF9 insect cells (baculovirus)

[2] = target: T2, TYK2 (Homo sapiens, UniProt P29597); test: TYK2 inhibition (Table 4)
T2 construct: made in house; host or cells: SF9 insect cells (baculovirus)
T2 sequence (P29597 873-1187): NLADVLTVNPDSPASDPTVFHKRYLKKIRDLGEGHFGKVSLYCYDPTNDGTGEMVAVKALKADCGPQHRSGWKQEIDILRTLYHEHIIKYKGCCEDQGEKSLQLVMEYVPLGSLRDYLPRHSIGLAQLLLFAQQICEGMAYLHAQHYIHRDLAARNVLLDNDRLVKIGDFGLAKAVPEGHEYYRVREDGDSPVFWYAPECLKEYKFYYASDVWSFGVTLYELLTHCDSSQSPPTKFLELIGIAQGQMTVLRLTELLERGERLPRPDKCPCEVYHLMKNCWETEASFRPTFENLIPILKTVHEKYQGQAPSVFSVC

[3] = target: T3, JAK3 (Homo sapiens, UniProt P52333); test: JAK3 inhibition (Table 4); conditions: read-out: JAK3 Ki
T3 construct: made in house; host or cells: SF9 insect cells (baculovirus)
T3 sequence (P52333 783-1124): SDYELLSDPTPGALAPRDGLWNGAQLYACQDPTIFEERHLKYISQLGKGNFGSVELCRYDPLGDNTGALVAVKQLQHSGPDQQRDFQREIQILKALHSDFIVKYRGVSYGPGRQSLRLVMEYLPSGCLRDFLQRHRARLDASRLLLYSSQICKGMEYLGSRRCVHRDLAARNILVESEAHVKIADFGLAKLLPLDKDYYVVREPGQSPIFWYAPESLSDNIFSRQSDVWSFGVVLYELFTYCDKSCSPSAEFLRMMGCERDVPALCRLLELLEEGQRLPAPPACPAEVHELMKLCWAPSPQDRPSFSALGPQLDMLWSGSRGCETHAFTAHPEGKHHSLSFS

[4] = target: T4, JAK1 (Homo sapiens, UniProt P23458); test: JAK1 inhibition (Table 4); conditions: read-out: JAK1 Ki
T4 construct: made in house; host or cells: SF9 insect cells (baculovirus)
T4 sequence (P23458 852-1154): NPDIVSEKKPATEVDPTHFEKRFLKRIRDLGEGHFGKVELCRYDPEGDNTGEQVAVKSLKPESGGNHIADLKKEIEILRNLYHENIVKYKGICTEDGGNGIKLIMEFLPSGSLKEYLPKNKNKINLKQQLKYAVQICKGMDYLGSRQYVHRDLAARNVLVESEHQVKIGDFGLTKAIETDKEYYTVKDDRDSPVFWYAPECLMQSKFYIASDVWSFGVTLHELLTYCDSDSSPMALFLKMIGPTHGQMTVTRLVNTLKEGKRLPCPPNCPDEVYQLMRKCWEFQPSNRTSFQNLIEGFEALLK

T1 sequence (O60674 812-1132): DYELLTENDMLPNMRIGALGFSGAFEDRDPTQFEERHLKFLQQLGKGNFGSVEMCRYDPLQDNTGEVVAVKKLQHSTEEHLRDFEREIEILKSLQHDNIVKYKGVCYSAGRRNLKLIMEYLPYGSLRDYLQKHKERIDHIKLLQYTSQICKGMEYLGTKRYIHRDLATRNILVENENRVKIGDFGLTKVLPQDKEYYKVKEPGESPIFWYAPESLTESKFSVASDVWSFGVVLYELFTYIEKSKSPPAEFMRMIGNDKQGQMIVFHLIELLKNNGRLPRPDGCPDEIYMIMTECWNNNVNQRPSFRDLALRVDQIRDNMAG

SMILES | Ki [1] | Ki [2] | Ki [3] | Ki [4]
CC(O)c1nc2cnc3[nH]ccc3c2n1CC1CCCO1 (stereo not shown) [Example 700, 1-[1-(Tetrahydro-furan-2-ylmethyl)-1,6-dihydro-1,2,3,5,6-tetraaza-as-indacen-2-yl]-ethanol] | 617 nM | 1430 nM | 546 nM | 478 nM
COCCC(=O)NCCc1nc2cnc3[nH]ccc3c2n1C1CCN(CCC#N)CC1 [Example 371, N-(2-{1-[1-(2-Cyano-ethyl)-piperidin-4-yl]-1,6-dihydro-1,3,5,6-tetraaza-as-indacen-2-yl}-ethyl)-3-methoxy-propionamide] | 35.5 nM | 178 nM | 48.5 nM | 4.82 nM
CC(C)(C#N)CN1CCC(n2cnc3cnc4[nH]ccc4c32)CC1 [Example 586, 2,2-Dimethyl-3-[4-(6H-1,2,3,5,6-tetraaza-as-indacen-1-yl)-piperidin-1-yl]-propionitrile] | 1.6 nM | 9.73 nM | 23.3 nM | 1.09 nM
COC(=O)N[C@H]1CC[C@H](n2nnc3cnc4[nH]ccc4c32)CC1 [Example 353, [4-(6H-1,2,3,5,6-Pentaaza-as-indacen-1-yl)-cyclohexyl]-carbamic acid methyl ester] | 15 nM | 87.4 nM | 216 nM | 8.27 nM
O=C(Cc1nc2cnc3[nH]ccc3c2n1C1CCNCC1)N1CCS(=O)(=O)CC1 [Example 262, 1-(1,1-Dioxo-1lambda*6*-thiomorpholin-4-yl)-2-(1-piperidin-4-yl-1,6-dihydro-1,3,5,6-tetraaza-as-indacen-2-yl)-ethanone] | 663 nM | 165 nM | 96.5 nM | 21.2 nM
c1cc2c(ncc3ncn([C@@H]4CCCN(Cc5cocn5)C4)c32)[nH]1 [Example 8, 1-((R)-1-Oxazol-4-ylmethyl-piperidin-3-yl)-1,6-dihydro-1,2,3,5,6-tetraaza-as-indacene] | 43.8 nM | 134 nM | 68.9 nM | 12.9 nM
O=C([C@@H]1CC(F)(F)CN1)N1CCC(n2cnc3cnc4[nH]ccc4c32)CC1 [Example 250, ((S)-4,4-Difluoro-pyrrolidin-2-yl)-[4-(6H-1,3,5,6-tetraaza-as-indacen-1-yl)-piperidin-1-yl]-methanone] | 64.7 nM | 300 nM | 336 nM | 29 nM
CC(C)(O)Cc1nc2cnc3[nH]ccc3c2n1C1CCN(CCC#N)CC1 [Example 346, 3-{4-[2-(2-Hydroxy-2-methyl-propyl)-6H-1,3,5,6-tetraaza-as-indacen-1-yl)-piperidin-1-yl}-propionitrile] | 31.5 nM | 140 nM | 51.8 nM | 13.9 nM
CCCS(=O)(=O)N1CCC(n2c(CC(N)=O)nc3cnc4[nH]ccc4c32)CC1 [Example 117, 2-{1-[1-(Propane-1-sulfonyl)-piperidin-4-yl]-1,6-dihydro-1,2,3,5,6-tetraaza-as-indacen-2-yl}-acetamide] | 781 nM | 1530 nM | 746 nM | 131 nM
CC(CC#N)N1CCC(n2c(CNS(C)(=O)=O)nc3cnc4[nH]ccc4c32)CC1 (racemic) [Example 507, N-{1-[1-(2-Cyano-1-methyl-ethyl)-piperidin-4-yl]-1,6-dihydro-1,3,5,6-tetraaza-as-indacen-2-ylmethyl}-methanesulfonamide] | 40.2 nM | 102 nM | 69.4 nM | 11.1 nM
CC(CC#N)N1CCC(n2c(C3CCC3)nc3cnc4[nH]ccc4c32)CC1 (racemic) [Example 392, 3-[4-(2-Cyclobutyl-6H-1,3,5,6-tetraaza-as-indacen-1-yl)-piperidin-1-yl]-butyronitrile] | 16.7 nM | 128 nM | 33.9 nM | 6.67 nM
c1cnc(CN2CCC(n3cnc4cnc5[nH]ccc5c43)CC2)cn1 [Example 92, 1-(1-Pyrazin-2-ylmethyl-piperidin-4-yl)-1,6-dihydro-1,3,5,6-tetraaza-as-indacene] | 6.15 nM | 109 nM | 25.6 nM | 3.64 nM
N#CCC(=O)N1CC[C@@H](n2cnc3cnc4[nH]ccc4c32)C1 [Example 37, 3-Oxo-3-[(R)-3-(6H-1,3,5,6-tetraaza-as-indacen-1-yl)-pyrrolidin-1-yl]propionitrile] | 44.2 nM | 198 nM | 144 nM | 11.3 nM

Next, values leading:

Ki [1] | Ki [2] | Ki [3] | Ki [4] | SMILES
23 nM | 25.4 nM | 21.7 nM | 3.46 nM | OCc1nc2cnc3[nH]ccc3c2n1C1CCN(CCC(F)(F)F)CC1 [Example 760, {1-[1-(3,3,3-Trifluoro-propyl)-piperidin-4-yl]-1,6-dihydro-1,3,5,6-tetraaza-as-indacen-2-yl}-methanol]
6.47 nM | 23.4 nM | 85.9 nM | 1.77 nM | Cc1nc2cnc3[nH]ccc3c2n1C1CCC(N2CCC(C#N)CC2)CC1 (stereo not shown) [Example 768, 1-[4-(2-Methyl-6H-1,3,5,6-tetraaza-as-indacen-1-yl)-cyclohexyl]-piperidine-4-carbonitrile]
5.7 nM | 320 nM | 43.5 nM | 1.36 nM | CNc1nc2cnc3[nH]ccc3c2n1C1CCN(Cc2cccc(C#N)c2)CC1 [Example 772, 3-[4-(2-Methylamino-6H-1,3,56-tetraaza-as-indacen-1-yl)-piperidine-1-yl-methyl]-benzonitrile]
6.42 nM | 57.2 nM | 0.79 nM | 1.28 nM | Cc1nc2cnc3[nH]ccc3c2n1C1CCC(NC(=O)N(C)CC(F)(F)F)C1 (racemic) [Example 736, 1-Methyl-3-[3-(2-methyl-6H-1,3,5,6-tetraaza-as-indacen-1-yl)-cyclopentyl]-1-(2,2,2-trifluoro-ethyl)-urea]
212 nM | 213 nM | 323 nM | 50.2 nM | Cc1nc2cnc3[nH]ccc3c2n1C1CNCCOC1 (stereo not shown) [Example 910, 2-Methyl-1-[1,4]oxazepan-6-yl-1,6-dihydro-1,3,5,6-tetraaza-as-indacene]
7.73 nM | 143 nM | 74.4 nM | 1.76 nM | CC(C)(C)OC(=O)N[C@@H]1CC[C@@H](n2nnc3cnc4[nH]ccc4c32)C1 [Example 727, [(1R,3R)-3-(6H-1,2,3,5,6-Pentaaza-as-indacen-1-yl)-cyclopentyl]-carbamic acid tert-butyl ester]
36.5 nM | 398 nM | 316 nM | 27.1 nM | O=C(N[C@H]1CC[C@H](n2cnc3cnc4[nH]ccc4c32)CC1)N1CCOCC1 [Example 593, Trans Morpholine-4-carboxylic acid [4-(6H-1,2,3,5,6-tetraaza-as-indacen-1-yl)-cyclohexyl]-amide]
323 nM | 542 nM | 88.9 nM | 33.9 nM | Cc1nc(CN2CCC(n3c([C@@H](C)O)nc4cnc5[nH]ccc5c43)CC2)c(C)o1 [Example 903, (R)-1-{1-[1-(2,5-Dimethyl-oxazol-4-ylmethyl)-piperidin-4-yl]-1,6-dihydro-1,3,5,6-tetraaza-as-indacen-2-yl}-ethanol]
12.4 nM | 233 nM | 19.5 nM | 9 nM | CN(CC(F)(F)F)C(=O)NC1CCC(n2nnc3cnc4[nH]ccc4c32)C1 (racemic) [Example 622, Racemic trans 1-Methyl-3-[3-(6H-1,2,3,5,6-pentaaza-as-indacen-1-yl)-cyclopentyl]-1-(2,2,2-trifluoro-ethyl)-urea]
579 nM | 357 nM | 1050 nM | 41 nM | OC1CCN(Cc2nc3cnc4[nH]ccc4c3n2C2CCCCC2)CC1 [Example 932, 1-(1-Cyclohyl-1,6-dihydro-1,3,5,6-tetraaza-as-indacen-2-ylmethyl)-piperidin-4-ol]
530 nM | 279 nM | 381 nM | 105 nM | CC(O)c1nc2cnc3[nH]ccc3c2n1C1CC2CCC1O2 (single isomer, unassigned) [Example 847, endo-1-[1-(7-Oxa-bicyclo[2.2.1]hept-2-yl)-1,6-dihydro-1,3,5,6-tetraaza-as-indacen-2-yl]-ethanol]
395 nM | 308 nM | 172 nM | 30.8 nM | C[C@@H](O)c1nc2cnc3[nH]ccc3c2n1[C@@H]1CCCO1 [Example 659, (R)-1-[(S)-1-(Tetrahydro-furan-2-yl)-1,6-dihydro-1,2,3,5,6-tetraaza-as-indacen-2-yl]-ethanol]
140 nM | 89.3 nM | 117 nM | 29.1 nM | OCc1nc2cnc3[nH]ccc3c2n1C1CC2CCC1O2 (single isomer, unassigned) [Example 852, endo-[1-(7-Oxa-bicyclo[2.2.1]hept-2-yl)-1,6-dihydro-1,3,5,6-tetraaza-as-indacen-2-yl]-methanol]
213 nM | 316 nM | 168 nM | 37.8 nM | N#CCCN1CCC(n2c(CC3CCOCC3)nc3cnc4[nH]ccc4c32)CC1 [Example 812, 3-{4-[2-(Tetrahydro-pyran-4-ylmethyl)-6H-1,3,5,6-tetraaza-as-indacen-1-yl]-piperidin-1-yl}-propionitrile]
10.6 nM | 14.7 nM | 5.97 nM | 1.8 nM | CCN1CCC(n2c(CO)nc3cnc4[nH]ccc4c32)C(F)(F)C1 (racemic) [Example 941, [1-(1-Ethyl-3,3-difluoro-piperidin-4-yl)-1,6-dihydro-1,3,5,6-tetraaza-as-indacen-2-yl]-methanol]
